In EP0970046B1, “N-HYDROXY-2-(ALKYL, ARYL, OR HETEROARYL SULFANYL, SULFINYL OR SULFONYL)-3-SUBSTITUTED ALKYL, ARYL OR HETEROARYLAMIDES AS MATRIX METALLOPROTEINASE INHIBITORS” (Wyeth Holdings Corporation, priority 1997, dated 1998):
Where two headings read alike, the source gives them in different places.

How the values were obtained:
MMP 13 = MMP 13 (Homo sapiens, UniProt P45452); assay: MMP 13 inhibition (HTS; method not described); type: biochemical; conditions: HTS; for inhibition at 0.2 µM: read-out: MMP 13 % inhibition at 0.2 µM (HTS); for inhibition at 0.036 µM: read-out: MMP 13 % inhibition at 36 nM (HTS); for MMP 13 % inhibition at 36 nM (HTS) / inhibition at 0.036 µM: 36 nM
TACE = target: T1, TACE (Homo sapiens, UniProt P78536); assay: Procedure for Measuring TACE Inhibition; type: biochemical; conditions: 1 µM; for inhibition at 1 µM: read-out: TACE % inhibition at 1 µM
T1 construct: purchased Immunex
T1 sequence (P78536 215-824): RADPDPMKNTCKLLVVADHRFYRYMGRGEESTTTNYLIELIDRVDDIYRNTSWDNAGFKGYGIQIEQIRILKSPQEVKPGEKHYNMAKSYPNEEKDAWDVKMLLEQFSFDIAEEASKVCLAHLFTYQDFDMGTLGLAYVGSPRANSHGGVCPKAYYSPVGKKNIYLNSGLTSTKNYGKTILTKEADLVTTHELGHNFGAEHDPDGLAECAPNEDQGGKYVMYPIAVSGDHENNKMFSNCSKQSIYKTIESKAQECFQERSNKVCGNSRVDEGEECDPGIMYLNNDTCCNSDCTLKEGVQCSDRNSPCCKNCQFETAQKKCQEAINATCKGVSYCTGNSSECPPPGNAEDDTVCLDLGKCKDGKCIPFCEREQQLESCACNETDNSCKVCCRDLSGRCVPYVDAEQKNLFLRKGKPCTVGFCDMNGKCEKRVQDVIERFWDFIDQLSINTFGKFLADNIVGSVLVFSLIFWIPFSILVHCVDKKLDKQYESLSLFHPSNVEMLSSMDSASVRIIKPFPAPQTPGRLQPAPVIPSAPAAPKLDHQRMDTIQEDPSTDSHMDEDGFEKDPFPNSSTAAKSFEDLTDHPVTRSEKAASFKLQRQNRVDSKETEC
Experimental: Using 96-well black microtiter plates, each well receives a solution composed of 10 µL TACE (Immunex, final concentration 1µg/mL), 70µL Tris buffer, pH 7.4 containing 10% glycerol (final concentration 10 mM), and 10 µL of test compound solution in DMSO (final concentration 1µM, DMSO concentration <1%) and incubated for 10 minutes at room temperature. The reaction is initiated by addition of a fluorescent peptidyl substrate (final concentration 100 µM) to each well and then shaking on a shaker for 5 sec. The reaction is read (excitation 340 nm, emission 420 nm) for 10 min. and the increase in fluorescence over time is plotted as a linear line. The slope of the line is calculated and represents the reaction rate. The linearity of the reaction rate is confirmed (r^2 >0.85). The mean (x±sem) of the control rate is calculated and compared for statistical significance (p<0.05) with drug-treated rates using Dunnett's multiple comparison test.

Molecule | inhibition at 0.2 µM (MMP 13) [%] | inhibition at 1 µM (TACE; Examples 110-168) [%] | further results
5-Pyridin-2-yl-thiophene-2-sulfonic acid 4(1-hydroxycarbamoyl-heptylsulfinyl)-hydroxy amide [Example 237] |  |  | MMP 13 % inhibition at 36 nM (HTS) (MMP 13): 55%; TACE % inhibition at 1 µM (TACE; Examples 169-240): 38.2%
COc1ccc(S(=O)(=O)C(C)C(=O)NO)cc1 (stereo not shown) [Example 110, N-Hydroxy-2-(4-methoxy-benzenesulfonyl)-propionamide] | 75 | 17.6 | 
COc1ccc(SC(C)C(=O)NO)cc1 (stereo not shown) [Example 111, N-Hydroxy-2-(4-methoxy-benzenesulfanyl)-propionamide] |  |  | MMP 13 % inhibition at 0.2 µM (HTS) (MMP 13): 10%; TACE % inhibition at 1 µM (TACE; Examples 110-168): 40.4%
CC(C)CCSC(C)C(=O)NO (stereo not shown) [Example 112, N-Hydroxy-2-(3-methyl-butane-1-sulfanyl)-propionamide] |  |  | MMP 13 % inhibition at 0.2 µM (HTS) (MMP 13): 50%; TACE % inhibition at 1 µM (TACE; Examples 110-168): 33.7%
CC(C)CCS(=O)(=O)C(C)C(=O)NO (stereo not shown) [Example 113, N-Hydroxy-2-(3-methyl-butane-1-sulfonyl)-propionamide] | 0 | 13.1 | 
CC(C)C(Sc1ccc2ccccc2c1)C(=O)NO (stereo not shown) [Example 114, N-hydroxy-3-methyl-2-(naphthalen-2-ylsulfanyl)-butyramide] | 0 | 0 | 
CC(C)C(C(=O)NO)[S+]([O-])c1ccc2ccccc2c1 (stereo not shown) [Example 115, N-Hydroxy-3-methyl-2-(naphthalen-2-ylsulfinyl)-butyramide] | 0 | 0 | 
CC(C)C(C(=O)NO)S(=O)(=O)c1ccc2ccccc2c1 (stereo not shown) [Example 116, N-Hydroxy-3-methyl-2-(naphthalen-2-ylsulfonyl)-butyramide] | 0 | 9.1 | 
CC(C)C(C(=O)NO)S(=O)(=O)CCc1ccccc1 (stereo not shown) [Example 118, N-Hydroxy-3-methyl-2-phenethylsulfonyl-butyramide] | 24 | 16.7 | 
CCC(SCC(=O)OC)C(=O)NO (stereo not shown) [Example 119, (1-Hydroxycarbamoyl-propane-1-sulfanyl)-acetic acid methyl ester] |  |  | MMP 13 % inhibition at 0.2 µM (HTS) (MMP 13): 0%; TACE % inhibition at 1 µM (TACE; Examples 110-168): 7.8%
O=C(NO)C(Cc1ccccc1)[S+]([O-])c1ccc(O)cc1 (stereo not shown) [Example 126, 2-(4-Hydroxybenzenesulfinyl)-N-hydroxy-3-phenyl-propionamide] | 25 | 10.4 | 
O=C(NO)C(Cc1ccccc1)S(=O)(=O)c1ccc(O)cc1 (stereo not shown) [Example 127, 2-(4-Hydroxybenzenesulfonyl)-N-hydroxy-3-phenyl-propionamide] | 47 | 29.2 | 
CC(=O)Nc1ccc(S(=O)(=O)C(Cc2ccccc2)C(=O)NO)cc1 (stereo not shown) [Example 130, 2-(4-Acetylamino-benzenesulfonyl)-N-hydroxy-3-phenyl-propionamide] | 28 | 27.9 | 
O=C(CCC(Sc1ccc(Br)cc1)C(=O)NO)NO (stereo not shown) [Example 134, 4-Hydroxycarbamoyl-4-(4-bromo-benzenesulfanyl)-butyric acid hydroxyamide] |  |  | MMP 13 % inhibition at 0.2 µM (HTS) (MMP 13): 25%; TACE % inhibition at 1 µM (TACE; Examples 110-168): -9.31%
O=C(CCC(C(=O)NO)S(=O)(=O)c1ccc(Br)cc1)NO (stereo not shown) [Example 136, 4-Hydroxycarbamoyl-4-(4-bromo-benzenesulfonyl)-butyric acid hydroxyamide] | 89 | 42.7 | 
O=C(CCC(Sc1ccccc1C(F)(F)F)C(=O)NO)NO (stereo not shown) [Example 137, 4-Hydroxycarbamoyl-4-(2-trifluoromethyl-benzenesulfanyl)-butyric acid hydroxyamide] |  |  | MMP 13 % inhibition at 0.2 µM (HTS) (MMP 13): 83%; TACE % inhibition at 1 µM (TACE; Examples 110-168): 13.35%
CS(=O)(=O)c1ccc(S(=O)(=O)C(COCc2ccccc2)C(=O)NO)cc1 (stereo not shown) [Example 148, 3-Benzyloxy-N-hydroxy-2-(4-methanesulfonyl-benzenesulfonyl)-propionamide] | 15 | 43.5 | 
O=C(NO)C(COCc1ccccc1)SCc1ccccc1Cl (stereo not shown) [Example 149, 3-Benzyloxy-N-hydroxy-2-(2-chloro-benzylsulfanyl)-propionamide] | 13 | 4.41 | 
O=C(NO)C(COCc1ccccc1)[S+]([O-])Cc1ccccc1Cl (stereo not shown) [Example 150, 3-Benzyloxy-N-hydroxy-2-(2-chloro-benzylsulfinyl)-propionamide] | 54 | 1.82 | 
O=C(NO)C(COCc1ccccc1)S(=O)(=O)Cc1ccccc1Cl (stereo not shown) [Example 151, 3-Benzyloxy-N-hydroxy-2-(2-chloro-benzylsulfonyl)-propionamide] | 6 | 5.93 | 

Molecule | inhibition at 0.2 µM (MMP 13) [%] | inhibition at 1 µM (TACE; Examples 110-168) [%] | further results
O=C(NO)C(Cc1cnc[nH]1)[S+]([O-])c1ccc(Br)cc1 (stereo not shown) [Example 153, 2-(4-bromo-benzenesulfinyl)-N-hydroxy-3-(3H-imidazol-4-yl)-propionamide] | 12 | 11.8 | 
O=C(NO)C(Cc1cnc[nH]1)S(=O)(=O)c1ccc(Cl)cc1 (stereo not shown) [Example 154, 2-(4-chloro-benzenesulfonyl)-N-hydroxy-3-(3H-imidazol-4-yl)-propionamide] | 89 | 13.1 | 
N=C(N)NCCCC(C(=O)NO)[S+]([O-])c1cccc(F)c1 (stereo not shown) [Example 156, 2-(3-Fluorophenylsulfinyl)-5-guanidino-pentanoic acid hydroxyamide] | 23 | -2.09 | 
CCCCCCC(C(=O)NO)S(=O)(=O)c1cc(Cl)ccc1Cl (stereo not shown) [Example 161, 2-(2,5-Dichlorobenzenesulfonyl)-octanoic acid hydroxyamide] | 0 | 12.7 | 
CCCCCCC(C(=O)NO)[S+]([O-])c1cccc(OC)c1 (stereo not shown) [Example 163, 2-(3-Methoxybenzenesulfinyl)-octanoic acid hydroxyamide] | 84 | 9.52 | 
CCCCCCC(C(=O)NO)[S+]([O-])c1ccc(OC)c(OC)c1 (stereo not shown) [Example 166, 2-(3,4-Dimethoxybenzenesulfinyl)-octanoic acid hydroxyamide] | 9 | 4.16 | 
CCCCCCC(C(=O)NO)S(=O)(=O)c1ccc(OC)c(OC)c1 (stereo not shown) [Example 167, 2-(3,4-Dimethoxybenzenesulfonyl)-octanoic acid hydroxyamide] | 27 | 8.96 | 
CCCCCCC(Sc1nc(-c2ccccc2)cs1)C(=O)NO (stereo not shown) [Example 172, 2-(4-Phenyl-thiazole-2-sulfanyl)-octanoic acid hydroxyamide] |  |  | MMP 13 % inhibition at 36 nM (HTS) (MMP 13): 34%; TACE % inhibition at 1 µM (TACE; Examples 169-240): 29.4%
CCCCCCC(SCCc1cnccn1)C(=O)NO (stereo not shown) [Example 175, 2-(2-Pyrazin-2-yl-ethylsulfanyl)-octanoic acid hydroxyamide] |  |  | inhibition (MMP 13; read-out: MMP 13 % inhibition (HTS)): 37%; inhibition at 0.036 µM (MMP 13): 16%; inhibition at 1 µM (TACE; Examples 169-240): 32.9%
CCCCCCC(Sc1nnnn1C)C(=O)NO (stereo not shown) [Example 176, 2-(1-Methyl-1H-tetrazol-5-ylsulfanyl)-octanoic acid hydroxyamide] |  |  | inhibition at 0.036 µM (MMP 13): 6%; inhibition at 1 µM (TACE; Examples 169-240): 26.6%
CCCCCCC(C(=O)NO)[S+]([O-])c1nc(-c2ccccc2)cs1 (stereo not shown) [Example 179, 2-(4-Phenyl-thiazole-2-sulfinyl)-octanoic acid hydroxyamide] |  |  | inhibition at 0.036 µM (MMP 13): 12%; inhibition at 1 µM (TACE; Examples 169-240): 42.7%
CCCCCCC(C(=O)NO)[S+]([O-])CCc1cnccn1 (stereo not shown) [Example 180, 2-(2-Pyrazin-2-yl-ethylsulfinyl)-octanoic acid hydroxyamide] |  |  | inhibition at 0.036 µM (MMP 13): 14%; inhibition at 1 µM (TACE; Examples 169-240): 34.4%
CCCCCCC(C(=O)NO)S(=O)(=O)c1nc(-c2ccccc2)cs1 (stereo not shown) [Example 182, 2-(4-Phenyl-thiazole-2-sulfonyl)-octanoic acid hydroxyamide] |  |  | inhibition at 0.036 µM (MMP 13): -9%; inhibition at 1 µM (TACE; Examples 169-240): 28.6%
CCCCCCC(Sc1nccs1)C(=O)NO (stereo not shown) [Example 186, 2-(Thiazol-2-ylsulfanyl)-octanoic acid hydroxyamide] |  |  | inhibition at 0.036 µM (MMP 13): -14%; inhibition at 1 µM (TACE; Examples 169-240): 19.5%
CCCCCCC(SCC1NC(=O)NC1=O)C(=O)NO (stereo not shown) [Example 187, 2-(2,5-Dioxo-imidazolidin-4-ylmethylsulfanyl)-octanoic acid hydroxyamide] |  |  | inhibition at 0.036 µM (MMP 13): -14%; inhibition at 1 µM (TACE; Examples 169-240): 85.5%
CCCCCCC(C(=O)NO)[S+]([O-])c1cccc2cccnc12 (stereo not shown) [Example 190, 2-(Quinoline-8-sulfinyl)-octanoic acid hydroxyamide] |  |  | inhibition at 0.036 µM (MMP 13): -35%; inhibition at 1 µM (TACE; Examples 169-240): 38.3%
CCCCCCC(C(=O)NO)S(=O)(=O)c1cccc(C(=O)NO)c1 (stereo not shown) [Example 192, 3-(1-Hydroxycarbamoyl-heptylsulfonyl)-benzoic acid hydroxyamide] |  |  | inhibition at 0.036 µM (MMP 13): -32%; inhibition at 1 µM (TACE; Examples 169-240): 33.2%
CCCCCCC(C(=O)NO)S(=O)(=O)c1ccc(CCC(=O)NO)cc1 (stereo not shown) [Example 193, 3-[4-(1-Hydroxycarbamoyl-heptylsulfonyl)-phenyl]-propionic acid hydroxy amide] |  |  | inhibition at 0.036 µM (MMP 13): -32%; inhibition at 1 µM (TACE; Examples 169-240): 14.9%
CCCCCCC(C(=O)NO)S(=O)(=O)c1ncc[nH]1 (stereo not shown) [Example 194, 2-(1H-Imidazole-2-sulfonyl)-octanoic acid hydroxyamide] |  |  | inhibition at 0.036 µM (MMP 13): -17%; inhibition at 1 µM (TACE; Examples 169-240): 5.4%
